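1) Cells in 96-well plates. 2) Compound, 48 h, 5 concentrations. 3) Linear interpolation between surrounding doses. 4) Unreached endpoint = highest concentration. Definition used: TGI = concentration required for complete inhibition of growth.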
How the values were obtained:
Assay in all cases: NCI tumour cell line growth inhibition, 48 h
[1] = test system: HL-60(TB) leukemia
[2] = test system: A549 NSCLC
[3] = test system: HOP-62 NSCLC
[4] = test system: MALME-3M melanoma
[5] = test system: SNB-75 CNS
[6] = test system: NCI-H23 lung
[7] = test system: SK-MEL-28 melanoma
[8] = test system: SR leukemia
[9] = test system: HCC-2998 colon
[10] = test system: OVCAR-4 ovarian
[11] = test system: SN12C renal
[12] = test system: NCI-H460 lung
[13] = test system: NCI-H522 lung
[14] = test system: SF-268 CNS
[15] = test system: HCT-116 colon
[16] = test system: RXF 393 renal
[17] = test system: SNB-19 CNS
[18] = test system: KM12 colon
[19] = test system: ACHN renal
[20] = test system: OVCAR-3 ovarian
[21] = test system: SK-OV-3 ovarian
[22] = test system: DMS 114 small cell lung
[23] = test system: M14 melanoma
[24] = test system: MOLT-4 leukemia
[25] = test system: UACC-62 melanoma
[26] = test system: DMS 273 small cell lung
[27] = test system: COLO 205 colon
[28] = test system: UACC-257 melanoma
[29] = test system: HCT-15 colon
[30] = test system: K-562 leukemia
[31] = test system: HOP-92 NSCLC
[32] = test system: CAKI-1 renal
[33] = test system: TK-10 renal
[34] = test system: SW-620 colon
[35] = test system: LXFL 529 NSCLC
[36] = test system: U251 CNS
[37] = test system: SF-295 CNS
[38] = test system: CCRF-CEM leukemia
[39] = test system: M19-MEL melanoma
[40] = test system: 786-0 renal
[41] = test system: OVCAR-8 ovarian
[42] = test system: EKVX NSCLC
[43] = test system: HOP-18 NSCLC
[44] = test system: OVCAR-5 ovarian
[45] = test system: IGROV1 ovarian
[46] = test system: SF-539 CNS
[47] = test system: LOX IMVI melanoma
[48] = test system: HT29 colon
[49] = test system: KM20L2 colon
[50] = test system: SK-MEL-5 melanoma
[51] = test system: UO-31 renal
[52] = test system: A498 renal
[53] = test system: DLD-1 colon
[54] = test system: SK-MEL-2 melanoma
[55] = test system: NCI-H226 lung

Measured: TGI

NC(N)=N/N=C/c1oc(-c2ccc(S(=O)(=O)O)o2)c(-c2ccc(S(=O)(=O)O)o2)c1[N+](=O)[O-]
> 100 µM: all assays above

From PubChem BioAssay (NCI)
